Assay results from paper PMC5693942 (Scientific Reports, 2017).
In brackets after ≈: the same amount, converted by molar mass. Read-outs that look alike come from different tables or passages of the source. One block for each molecule: values may come before it.

Legend:
[1] = in vivo; cited from earlier work
[2] = Activated sludge simulating microcosms (degradation of FL, formation of NFL); assay type: physicochemical
Method: Activated sludge microcosm experiments were conducted in the dark and aerobic conditions. Three microcosm bioreactors were investigated in duplicate. They were filled with 2 L of fresh activated sludge collected from a local wastewater treatment plant. […] Dark conditions were simulated by covering up the flask with foil. Aerobic conditions were obtained using air from BOC air cylinder and a thorough mixing was maintained using magnetic stirrers. The experiment was 24 hours long. […] Collected samples were subsequently frozen until their analysis to prevent degradation of compounds.
The compounds studied are characterized as having low volatility and therefore volatilization was not considered as a potential removal pathway in studied microcosms. Photodegradation was also not considered (not relevant) under tested activated sludge conditions. Therefore the two important degradation mechanisms to consider were biodegradation and sorption to sludge. […] However, in this study, sorption equilibrium was assumed and therefore sorption could be considered negligible. This is because sorption is assumed to be fast when compared to biological degradation.
Several reports utilized pseudo-first-order kinetics for degradation of micropollutants in activated sludge reactors[48]–[50]. […] Pseudo-first order biodegradation rate k1 [L g^−1h^−1]

Tetrahymena thermophila = test: microbe, parasite or virus in culture; assay type: cell-based; conditions: for EC50: Tetrahymena thermophila
Method: The tests were performed in accordance with the protocols provided by the manufacturer. […] The tests were carried out in disposable spectrophotometric cells of 1 cm path-length, to enable the measurement of the optical density (OD) at 440 nm. […] This change in OD over the time period is used to quantify the degree of inhibition and subsequent calculation of the EC50. Each concentration was repeated in duplicate.

Daphnia magna = Daphnia magna acute 48 h immobilization assay (Daphtoxkit); assay type: in vivo; conditions: for Average effect (N immobile, 5 daphnids per replicate): 48 h;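 for Average effect (N immobile, 5 daphnids per replicate): test concentrations in mg per L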
Method: Six concentration levels (5 concentrations plus control, four replicate beakers for each concentrations, five individual for each beaker) were tested. […] Each experiment was repeated in triplicate.

[3] = River water simulating microcosms (degradation of FL)

Molecule: FL glucuronide
excreted in the urine as this species [1]: 7.4%

Molecule: NFL glucuronide
excreted in the urine as this species [1]: 8.2%

Concentration ([2]; 10 µg L-1 microcosm, time 0): 0.035 ± 0.009 ng/mL
Concentration ([2]; 10 µg L-1 microcosm, time 0.5): 0.029 ± 0.001 ng/mL
Concentration ([2]; 10 µg L-1 microcosm, time 1): 0.077 ± 0.004 ng/mL
Concentration ([2]; 10 µg L-1 microcosm, time 1.5): 0.012 ± 0.013 ng/mL
Concentration ([2]; 10 µg L-1 microcosm, time 2): 0.050 ± 0.011 ng/mL
Concentration ([2]; 10 µg L-1 microcosm, time 3): 0.043 ± 0.022 ng/mL
Concentration ([2]; 10 µg L-1 microcosm, time 5): 0.070 ± 0.016 ng/mL
Concentration ([2]; 10 µg L-1 microcosm, time 8): 0.055 ± 0.019 ng/mL
Concentration ([2]; 10 µg L-1 microcosm, time 12): 0.126 ± 0.035 ng/mL
Concentration ([2]; 10 µg L-1 microcosm, time 24): 0.182 ± 0.000 ng/mL
Concentration ([2]; 100 µg L-1 microcosm, time 0): 0.109 ± 0.023 ng/mL
Concentration ([2]; 100 µg L-1 microcosm, time 0.5): 0.132 ± 0.015 ng/mL
Concentration ([2]; 100 µg L-1 microcosm, time 1): 0.128 ± 0.038 ng/mL
Concentration ([2]; 100 µg L-1 microcosm, time 1.5): 0.146 ± 0.039 ng/mL
Concentration ([2]; 100 µg L-1 microcosm, time 2): 0.428 ± 0.019 ng/mL
Concentration ([2]; 100 µg L-1 microcosm, time 3): 0.429 ± 0.164 ng/mL
Concentration ([2]; 100 µg L-1 microcosm, time 5): 0.616 ± 0.227 ng/mL
Concentration ([2]; 100 µg L-1 microcosm, time 8): 0.710 ± 0.193 ng/mL
Concentration ([2]; 100 µg L-1 microcosm, time 12): 0.859 ± 0.069 ng/mL
Concentration ([2]; 100 µg L-1 microcosm, time 24): 1.302 ± 0.066 ng/mL
Concentration ([3]; DAR (dark abiotic), day 5): 0.002 ± 0.000 ng/mL
Concentration ([3]; DBR (dark biotic), day 1): 0.002 ± 0.001 ng/mL
Concentration ([3]; DBR (dark biotic), day 3): 0.002 ± 0.001 ng/mL
Concentration ([3]; DBR (dark biotic), day 5): 0.002 ± 0.001 ng/mL
Concentration ([3]; LAR (light abiotic), day 2): 0.001 ± 0.000 ng/mL
Concentration ([3]; LAR (light abiotic), day 3): 0.004 ± 0.001 ng/mL
Concentration ([3]; LAR (light abiotic), day 4): 0.003 ± 0.000 ng/mL
Concentration ([3]; LAR (light abiotic), day 5): 0.002 ± 0.001 ng/mL
Concentration ([3]; LAR (light abiotic), day 8): 0.001 ± 0.001 ng/mL
Concentration ([3]; LAR (light abiotic), day 9): 0.002 ± 0.001 ng/mL
Concentration ([3]; LAR (light abiotic), day 10): 0.002 ± 0.000 ng/mL
Concentration ([3]; LAR (light abiotic), day 11): 0.003 ± 0.000 ng/mL
Concentration ([3]; LAR (light abiotic), day 12): 0.003 ± 0.001 ng/mL
Concentration ([3]; LAR (light abiotic), day 15): 0.002 ± 0.001 ng/mL
Concentration ([3]; LAR (light abiotic), day 16): 0.004 ± 0.001 ng/mL
Concentration ([3]; LBR (light biotic), day 1): 0.001 ± 0.000 ng/mL
Concentration ([3]; LBR (light biotic), day 2): 0.002 ± 0.000 ng/mL
Concentration ([3]; LBR (light biotic), day 3): 0.002 ± 0.001 ng/mL
Concentration ([3]; LBR (light biotic), day 5): 0.003 ± 0.001 ng/mL
Molecule: NCC[C@@H](Oc1ccc(C(F)(F)F)cc1)c1ccccc1 [(R)-NFL, (R)-3-phenyl-3-[4-(trifluoromethyl)phenoxy]-1-propanamine]
EC50 (Tetrahymena thermophila; T. thermophila, this study, read-out: EC50_24h -growth): 5.8 µg/mL (≈ 19.6 µM)
EC50 (Tetrahymena thermophila; definitive test, read-out: 24hEC50): 5.84 µg/mL (≈ 19.8 µM)
EC50 (Tetrahymena thermophila; range test, read-out: 24hEC50): 0.418 µg/mL (≈ 1.42 µM)
% I (percentage inhibition) (Tetrahymena thermophila; definitive test, conc. 0.220): -4.385%
% I (percentage inhibition) (Tetrahymena thermophila; definitive test, conc. 0.661): -11.658%
% I (percentage inhibition) (Tetrahymena thermophila; definitive test, conc. 22.017): 92.941%
% I (percentage inhibition) (Tetrahymena thermophila; definitive test, conc. 35.941): 94.118%
% I (percentage inhibition) (Tetrahymena thermophila; definitive test, conc. 57.505): 94.332%
% I (percentage inhibition) (Tetrahymena thermophila; definitive test, conc. 118.604): 103.743%
% I (percentage inhibition) (Tetrahymena thermophila; definitive test, conc. 179.703): 104.492%
% I (percentage inhibition) (Tetrahymena thermophila; range test, conc. 0.005): 10.591%
% I (percentage inhibition) (Tetrahymena thermophila; range test, conc. 0.050): -7.266%
% I (percentage inhibition) (Tetrahymena thermophila; range test, conc. 0.500): 50.369%
% I (percentage inhibition) (Tetrahymena thermophila; range test, conc. 5.000): 101.108%
% I (percentage inhibition) (Tetrahymena thermophila; range test, conc. 50.000): 106.897%
Average effect (N immobile, 5 daphnids per replicate) (Daphnia magna; concentration 0.5): 0.25
Average effect (N immobile, 5 daphnids per replicate) (Daphnia magna; concentration 1.5): 0.5
Average effect (N immobile, 5 daphnids per replicate) (Daphnia magna; concentration 5): 4.25
Average effect (N immobile, 5 daphnids per replicate) (Daphnia magna; concentration 16): 5
Average effect (N immobile, 5 daphnids per replicate) (Daphnia magna; concentration 50): 5
EC50 (Daphnia magna; Daphnia magna, D. magna, this study, read-out: EC50_48h -immobilization): 2.9 µg/mL (≈ 9.82 µM)
